Assay results taken from patent publication US20250313539A1, “Alpha, Beta-UNSATURATED AMIDE COMPOUND, AND PREPARATION METHOD THEREFOR, AND PHARMACEUTICAL COMPOSITION AND USE THEREOF” (SHANGHAI INSTITUTE OF MATERIA MEDICA, CHINESE ACADEMY OF …, priority 2022, published 2025).
Values joined by “and” are separate entries in the source; they are usually repeats but may differ in a detail not shown here. Equal entries are not always repeated. Where two headings read alike, the source gives them in different places. Each block holds one compound with its values, some of them ahead of it.

Legend:
[1] = system: cerebral blood flow in mice; test: laser speckle test blood flow model, improvement of cerebral blood flow in mice; format: in vivo; settings: injected intraperitoneally, within 60 minutes after administration vs before; for change in vivo at 20 mg/kg: dose of 20 mg/kg
Text: We used a laser speckle test blood flow model to test the activity of compounds in improving cerebral blood flow in mice. The principle is to measure the intensity changes of flowing blood through laser speckle technology, reflecting real-time cerebral blood flow; By comparing the changes in blood flow before and after administration in mice, the effect of compounds on improving blood flow can be detected.
The experimental mice were anesthetized for 30 seconds and fixed on a rack. After waiting for 2 minutes for the baseline light intensity data to stabilize, the brain blood flow light intensity data of the mice were recorded for 10 minutes without administration. Subsequently, the test compound was injected intraperitoneally and the cerebral blood flow and light intensity data of mice were recorded within 60 minutes after administration. Comparing the changes in light intensity before and after administration can reveal the degree of changes in cerebral blood flow in mice.
Through the laser speckle model mentioned above, we conducted preliminary tests on the activity of the compound in improving cerebral blood flow in mice. In this experiment, ferulic acid (FA) was used as a positive control. Multiple compounds have shown significant improvement effects on cerebral blood flow in this model. At a dose of 5 mg/kg, compound 9 can increase cerebral blood flow in mice by about 10%, and compound 16 can increase it by about 20%. At a dose of 20 mg/kg, compounds 30 and 59 increased mouse cerebral blood flow by about 10%, compounds 5, 6, 26, 28, 29, 35, 43, and 58 all increased mouse cerebral blood flow by about 20%, compounds 16, 57, and 86 increased mouse cerebral blood flow by about 30%, compounds 27, 84, and 104 increased it by about 40%, and compound 83 increased mouse cerebral blood flow by 50% to 60%. Overall, the patented compound has good development prospects.

[2] = pharmacokinetic parameters in mice (plasma, LC-MS/MS); format: in vivo, Male ICR (CD-1) mice; settings: male, ICR (CD-1), mouse; for MRT inf: read-out: MRT0-∞; for bioavailability: read-out: F (oral bioavailability)
Procedure: Male ICR (CD-1) mice were divided into two groups, with three mice in each group. […] intravenously injected with 5 mg/kg of the test substance, blood was collected before administration, and 0.25 h, 0.5 h, 1 h, 2 h, 4 h, 8 h, and 24 hours after administration, respectively, and centrifuged immediately to obtain plasma, and the drug concentration in the plasma was determined using liquid chromatography tandem mass spectrometry.

[3] = drug concentration in brain tissue, plasma and CSF after oral administration in mice; format: in vivo
Text: Compound 27 has good brain tissue drug distribution after oral administration in mice, with a B/P of approximately 0.7.

[4] = Mus musculus, ip, 1 h, read-out: increase of cerebral blood flow in mice
[5] = PO 20 mg/kg, 15 min, individual animals 13-15
[6] = PO 20 mg/kg, 30 min, individual animals 16-18

SMILES: O=C(/C=C/c1ccc(C(F)(F)F)cc1)N1CCOC1=O [Example 9]
increase of cerebral blood flow in mice ([1]; dose of 5 mg/kg): about 10%

SMILES: O=C(/C=C/c1ccccc1C(F)(F)F)N1C(=O)OCC1c1ccccc1 (stereo not drawn) [Example 26, (E)-3-(3-(2-trifluoromethylphenyl)acryloyl)-4-phenyloxazolidin-2-one]
change in vivo at 20 mg/kg [1, 4]: ~20%

SMILES: [2H]C1([2H])OC(=O)N(C(=O)/C=C/c2ccccc2OC(F)(F)F)[C@H]1c1ccccc1 [Example 84, (S, E)-4-phenyl-3-(3-(2-trifluoromethoxyphenyl)acryloyl) oxazolidin-2-one-5,5-d2]
change in vivo at 20 mg/kg [1, 4]: ~40%

SMILES: O=C(/C=C/c1ccccc1C(F)(F)F)N1C(=O)OCC1Cc1ccccc1 (stereo not drawn) [Example 57, (E)-4-benzyl-3-(3-(2-trifluoromethylphenyl)acryloyl)oxazolidin-2-one]
change in vivo at 20 mg/kg [1, 4]: ~30%

AUC(0-inf) ([2]; iv-5 mg/kg): 2200 ng·h/mL
AUC(0-t) ([2]; iv-5 mg/kg): 2170 ng·h/mL
clearance ([2]; iv-5 mg/kg): 37.8 mL/min/kg
half-life ([2]; iv-5 mg/kg): 93.6 min
MRT inf ([2]; iv-5 mg/kg): 1.21 h
AUC(0-inf) ([2]; po-10 mg/kg): 767 ng·h/mL
AUC(0-t) ([2]; po-10 mg/kg): 757 ng·h/mL
Cmax ([2]; po-10 mg/kg): 116 ng/mL
Tmax ([2]; po-10 mg/kg): 1 h
half-life ([2]; po-10 mg/kg): 245 min
bioavailability ([2]; po-10 mg/kg vs iv-5 mg/kg): 17.4%
MRT inf ([2]; po-10 mg/kg): 5.61 h
SMILES: [2H]C1([2H])OC(=O)N(C(=O)/C=C/c2ccccc2C(F)(F)F)[C@H]1c1ccccc1 [Example 83, (S, E)-4-phenyl-3-(3-(2-trifluoromethylphenyl)acryloyl)oxazolidin-2-one-5,5-d2]
change in vivo at 20 mg/kg [1, 4]: 50 to 60%

AUC(0-inf) ([2]; iv-5 mg/kg): 805 ng·h/mL
AUC(0-t) ([2]; iv-5 mg/kg): 790 ng·h/mL
clearance ([2]; iv-5 mg/kg): 104 mL/min/kg
half-life ([2]; iv-5 mg/kg): 125 min
MRT inf ([2]; iv-5 mg/kg): 1.04 h
AUC(0-inf) ([2]; po-20 mg/kg): 650 ng·h/mL
AUC(0-t) ([2]; po-20 mg/kg): 465 ng·h/mL
Cmax ([2]; po-20 mg/kg): 104 ng/mL
Tmax ([2]; po-20 mg/kg): 1 h
half-life ([2]; po-20 mg/kg): 241 min
bioavailability ([2]; po-20 mg/kg vs iv-5 mg/kg): 14.7%
MRT inf ([2]; po-20 mg/kg): 6.12 h
concentration at 15 min ([3]; ICR (CD-1), mouse, brain, po, 20 mg/kg, PO 20 mg/kg, 15 min, mean, read-out: Brain): 50.9 ng/g
concentration at 30 min ([3]; ICR (CD-1), mouse, brain, po, 20 mg/kg, PO 20 mg/kg, 30 min, mean, read-out: Brain): 43.7 ng/g
Kp at 15 min ([3]; ICR (CD-1), mouse, brain/heart plasma, po, 20 mg/kg, PO 20 mg/kg, 15 min, individual animals 13-15, read-out: Brain/H. Plasma): 0.7
Kp at 15 min ([3]; ICR (CD-1), mouse, brain/heart plasma, po, 20 mg/kg, PO 20 mg/kg, 15 min, mean, read-out: Brain/H. Plasma): 0.7
Kp at 30 min ([3]; ICR (CD-1), mouse, brain/heart plasma, po, 20 mg/kg, PO 20 mg/kg, 30 min, mean, read-out: Brain/H. Plasma): 0.7
Kp at 15 min ([3]; ICR (CD-1), mouse, brain/plasma, po, 20 mg/kg, after oral administration in mice, read-out: B/P (brain tissue drug distribution)): ~0.7
concentration at 15 min ([3]; ICR (CD-1), mouse, heart plasma, po, 20 mg/kg, PO 20 mg/kg, 15 min, mean, read-out: Heart Plasma): 70.4 ng/mL
concentration at 30 min ([3]; ICR (CD-1), mouse, heart plasma, po, 20 mg/kg, PO 20 mg/kg, 30 min, mean, read-out: Heart Plasma): 61.9 ng/mL
concentration at 15 min ([3]; ICR (CD-1), mouse, po, 20 mg/kg, PO 20 mg/kg, 15 min, mean, read-out: CSF): 3.8 ng/mL
concentration at 30 min ([3]; ICR (CD-1), mouse, po, 20 mg/kg, PO 20 mg/kg, 30 min, mean, read-out: CSF): 3.2 ng/mL
concentration at 15 min ([3]; ICR (CD-1), mouse, portal vein plasma, po, 20 mg/kg, PO 20 mg/kg, 15 min, individual animals 13-15, read-out: Portal Vein Plasma): 320 ng/mL
concentration at 15 min ([3]; ICR (CD-1), mouse, portal vein plasma, po, 20 mg/kg, PO 20 mg/kg, 15 min, mean, read-out: Portal Vein Plasma): 371 ng/mL
concentration at 30 min ([3]; ICR (CD-1), mouse, portal vein plasma, po, 20 mg/kg, PO 20 mg/kg, 30 min, mean, read-out: Portal Vein Plasma): 373 ng/mL
Brain [3, 5]: 29.4 ng/g and 75.4 ng/g and 47.9 ng/g
Brain/H. Plasma [3, 5]: 0.65 and 0.91
CSF [3, 5]: 1.63 ng/mL and 8.37 ng/mL and 1.40 ng/mL
Heart Plasma [3, 5]: 41.9 ng/mL and 117 ng/mL and 52.7 ng/mL
Portal Vein Plasma [3, 5]: 375 ng/mL and 418 ng/mL
Brain [3, 6]: 19.4 ng/g and 38.8 ng/g and 44.3 ng/g
Brain/H. Plasma [3, 6]: 0.56 and 1.37 and 0.49
Heart Plasma [3, 6]: 34.2 ng/mL and 28.2 ng/mL and 89.5 ng/mL
Portal Vein Plasma [3, 6]: 252 ng/mL and 171 ng/mL and 704 ng/mL
SMILES: O=C(/C=C/c1ccccc1C(F)(F)F)N1C(=O)OC[C@@H]1c1ccccc1 [Example 27, (S, E)-3-(3-(2-trifluoromethylphenyl)acryloyl)-4-phenyloxazolidin-2-one]
change in vivo at 20 mg/kg [1, 4]: ~40%
CSF [3, 6]: 0.670 ng/mL and 0.770 ng/mL and 5.94 ng/mL

SMILES: COc1ccc(/C=C/C(=O)N2CCOC2=O)cc1 [Example 6, (E)-3-(3-(4-methoxyphenyl)acryloyl)oxazolidin-2-one]
change in vivo at 20 mg/kg [1, 4]: ~20%

SMILES: O=C(/C=C/c1ccccc1OC(F)(F)F)N1C(=O)OC[C@@H]1c1ccccc1 [Example 30, (S, E)-4-phenyl-3-(3-(2-(trifluoromethoxy)phenyl)acryloyl) oxazolidin-2-one]
change in vivo at 20 mg/kg [1, 4]: ~10%

SMILES: COc1cccc(/C=C/C(=O)N2CCOC2=O)c1 [Example 5, (E)-3-(3-(3-methoxyphenyl)acryloyl)oxazolidin-2-one]
change in vivo at 20 mg/kg [1, 4]: ~20%

SMILES: O=C(/C=C/c1ccc(F)cc1C(F)(F)F)N1C(=O)OC[C@@H]1c1ccccc1 [Example 43, (S, E)-3-(3-(4-fluoro-2-(trifluoromethyl)phenyl)acryloyl)-4-phenyloxazolidin-2-one]
change in vivo at 20 mg/kg [1, 4]: ~20%

SMILES: [2H]C1([2H])OC(=O)N(C(=O)/C=C/c2ccccc2C(F)(F)F)C1Cc1ccccc1 (stereo not drawn) [Example 104, (E)-4-benzyl-3-(3-(2-trifluoromethylphenyl)acryloyl)oxazolidin-2-one-5,5-d2]
change in vivo at 20 mg/kg [1, 4]: ~40%

SMILES: O=C(/C=C/c1ccccc1C(F)(F)F)N1C(=O)OC[C@H]1Cc1ccccc1 [Example 59, (R, E)-4-benzyl-3-(3-(2-trifluoromethylphenyl)acryloyl)oxazolidin-2-one]
change in vivo at 20 mg/kg [1, 4]: ~10%

SMILES: [2H]C1([2H])OC(=O)N(C(=O)/C=C/c2cccc(-c3ccccc3)c2)[C@H]1c1ccccc1 [Example 86, (S, E)-3-(3-([1,1′-biphenyl]-3-yl)acryloyl)-4-phenyloxazolidin-2-one-5,5-d2]
change in vivo at 20 mg/kg [1, 4]: ~30%

SMILES: O=C(/C=C/c1cccc(OC(F)(F)F)c1)N1C(=O)OC[C@@H]1c1ccccc1 [Example 29, (S, E)-4-phenyl-3-(3-(3-(trifluoromethoxy)phenyl)acryloyl) oxazolidin-2-one]
change in vivo at 20 mg/kg [1, 4]: ~20%

SMILES: O=C(/C=C/c1cccc(Oc2ccccc2)c1)N1CCOC1=O [Example 16, (E)-3-(3-(3-phenoxyphenyl)acryloyl)oxazolidin-2-one]
change in vivo at 5 mg/kg ([1]; Mus musculus, ip, 1 h, dose of 5 mg/kg, read-out: increase of cerebral blood flow in mice): ~20%
change in vivo at 20 mg/kg [1, 4]: ~30%

SMILES: O=C(/C=C/c1ccccc1C(F)(F)F)N1C(=O)OC[C@@H]1Cc1ccccc1 [Example 58, (S, E)-4-benzyl-3-(3-(2-trifluoromethylphenyl)acryloyl)oxazolidin-2-one]
change in vivo at 20 mg/kg [1, 4]: ~20%

SMILES: O=C(/C=C/c1ccccc1C(F)(F)F)N1C(=O)OC[C@H]1c1ccccc1 [Example 28, (R, E)-3-(3-(2-trifluoromethylphenyl)acryloyl)-4-phenyloxazolidin-2-one]
change in vivo at 20 mg/kg [1, 4]: ~20%

SMILES: O=C(/C=C/c1cccc(-c2ccccc2)c1)N1C(=O)OC[C@@H]1c1ccccc1 [Example 35, (S, E)-3-(3-([1,1′-biphenyl]-3-yl)acryloyl)-4-phenyloxazolidin-2-one]
change in vivo at 20 mg/kg [1, 4]: ~20%
